# Measured values: ChEMBL document CHEMBL1201862, “PubChem BioAssay data set” (2004)
#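 Following 48 hours of exposure in 96-well plates, responses at five concentrations were used to interpolate endpoints linearly. The concentration for 50% growth inhibition is given as GI50.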 Active and inactive are the calls of the source. No stated cut-off is given here; in the data, active = GI50 up to about 1.1 µM and inactive = higher. Starred links: 1 amine or outer side, 2 acyl side, 3 side chain; linkers in the order of their positions; H or OH if unused. Non-standard residues stand in square brackets, D forms with d. Residues, ends and D or L forms follow the SMILES beside them. *: point of attachment. X47 = CCC(=O)CC1CC(C)CC(C(=O)[*:2])N1[*:1]; X46 = CCCCCCCCC(C)C(=O)*; Aib = CC(C)(N)C(=O)O; X48 = CC(CN(C)CCO)N*
# Experiments:
# Experiment in all cases: growth of human tumour cells (NCI), 48 h
# CAKI-1 = tested on: CAKI-1
# CCRF-CEM = tested on: CCRF-CEM
# DLD-1 = tested on: DLD-1
# DMS-114 = tested on: DMS-114
# HCT-15 = tested on: HCT-15
# HOP-92 = tested on: HOP-92
# HT-29 = tested on: HT-29
# KM-20L2 = tested on: KM-20L2
# LXFL 529 = tested on: LXFL 529
# M19-MEL = tested on: M19-MEL
# NCI-H522 = tested on: NCI-H522
# SF-539 = tested on: SF-539
# SNB-19 = tested on: SNB-19
# SW-620 = tested on: SW-620
# SNB-78 = tested on: SNB-78
# BT-549 = tested on: BT-549
# DU-145 = tested on: DU-145
# Hs-578T = tested on: Hs-578T
# NCI/ADR-RES = tested on: NCI/ADR-RES
# PC-3 = tested on: PC-3
Compound,GI50 (CAKI-1),GI50 (CCRF-CEM),GI50 (DLD-1),GI50 (DMS-114),GI50 (HCT-15) [µM],GI50 (HOP-92),GI50 (HT-29),GI50 (KM-20L2),GI50 (LXFL 529),GI50 (M19-MEL),GI50 (NCI-H522),GI50 (SF-539),GI50 (SNB-19),GI50 (SW-620),GI50 (SNB-78),GI50 (BT-549),GI50 (DU-145),GI50 (Hs-578T),GI50 (NCI/ADR-RES),GI50 (PC-3)
O=C(c1ccccc1)c1c(CC(O)c2ccccc2)n(C(=O)c2ccccc2)c2ccccc12 (centres undefined),55.7 µM (inactive),35.8 µM (inactive),40.9 µM (inactive),28 µM (inactive),32.7,29.7 µM (inactive),63.8 µM (inactive),55.8 µM (inactive),39.5 µM (inactive),59 µM (inactive),17.5 µM (inactive),34.2 µM (inactive),36.4 µM (inactive),50.7 µM (inactive),,,,,,
O=C(O)c1nc(-c2ccc(Cl)c(Cl)c2)nc2ccc(Cl)cc12,73.1 µM (inactive),> 10 µM (inactive),> 100 µM (inactive),,> 100,,> 100 µM (inactive),> 100 µM (inactive),> 100 µM (inactive),> 100 µM (inactive),,> 100 µM (inactive),51.9 µM (inactive),> 100 µM (inactive),27.9 µM (inactive),,,,,
COc1cc(C/C=C/c2ccccc2)c(OC)cc1O [VIOLASTYRENE],26.2 µM (inactive),17.1 µM (inactive),,,17.9,15.4 µM (inactive),20.9 µM (inactive),,,,20.9 µM (inactive),17.9 µM (inactive),30.5 µM (inactive),20 µM (inactive),,24.7 µM (inactive),17.3 µM (inactive),30.8 µM (inactive),26.5 µM (inactive),21.6 µM (inactive)
Oc1ccc(/C=N/c2ccccc2O)cc1,68.1 µM (inactive),44.7 µM (inactive),,,21.3,> 100 µM (inactive),69 µM (inactive),,,,29.3 µM (inactive),71.3 µM (inactive),> 100 µM (inactive),31.3 µM (inactive),,67.8 µM (inactive),17 µM (inactive),37.2 µM (inactive),75 µM (inactive),34.1 µM (inactive)
CC(=O)OCCOCn1cnc2c(Cl)nc(Cl)nc21,0.275 µM (active),6.37 µM (inactive),,,3.64,1.67 µM (inactive),15.4 µM (inactive),,,,2.05 µM (inactive),> 10 µM (inactive),31.2 µM (inactive),12.4 µM (inactive),,18.7 µM (inactive),19.5 µM (inactive),18.7 µM (inactive),24.1 µM (inactive),17 µM (inactive)
CCCCCCCCC(C)C(=O)N1CCCC1C(=O)N1C(CC(=O)CC)CC(C)CC1C(=O)NC(C)C(=O)NC(C)(C)C(=O)NC(C)(C)C(=O)NC(C(=O)NC(C)C(=O)NC(C)(C)C(=O)NC(C)(C)C(=O)NC(C)CN(C)CCO)C(C)CC (centres undefined) (X46-P[X47]A[Aib][Aib]IA[Aib][Aib]-X48; configuration not given here),0.818 µM (active),< 0.0183 µM (active),,,0.406,< 0.01 µM (active),0.0261 µM (active),,,,< 0.01 µM (active),0.211 µM (active),0.214 µM (active),0.0794 µM (active),,1.57 µM (inactive),0.0847 µM (active),0.168 µM (active),0.435 µM (active),0.0103 µM (active)
CCOC(=O)CCc1c(C)c2c(OC)cc(OC)cc2oc1=O,72.3 µM (inactive),,91.6 µM (inactive),,,22.3 µM (inactive),91 µM (inactive),> 100 µM (inactive),62.5 µM (inactive),> 100 µM (inactive),> 100 µM (inactive),> 100 µM (inactive),> 100 µM (inactive),> 100 µM (inactive),> 100 µM (inactive),,,,,
